{"source": "patent US10006912B2", "about": "“Peptides for diagnosing lyme disease” (B[…]., priority 2013, dated 2018)", "key": {"[1]": {"tested_on": "IgM in sera containing antibodies against B. burgdorferi proteins", "assay": "Epitope mapping of DbpB overlapping peptide library, IgM binding", "parameters": "species or system human", "conditions": "8 high titer Lyme disease patient sera; 20-AA library peptides of DbpB, B. burgdorferi B31", "experimental": "(§1) Epitope mapping of full-length DbpB was performed by ArrayIt, Corp. (Sunnyvale, Calif.). Briefly, an overlapping peptide library consisting of 20-AA long peptides overlapping by 15-AA (offset by 5-AA) was generated using the sequence for DbpB from B. burgdorferi B31 (Accession #AAC66244). The sequence submitted for mapping lacked the first 8 AA. The library was exposed to 8 sera containing antibodies against B. burgdorferi proteins, as determined by commercial Lyme immunostrips (Viramed Biotech AG, Planegg, Germany). IgM and IgG binding were independently evaluated, and data were reported in terms of fluorescent binding intensity. Peptides generated from epitope mapping data were produced by Lifetein, Inc (South Plainfield, N.J.). […]\n(§2) Linear epitope mapping of DbpB was accomplished by probing overlapping peptide libraries containing full length sequences derived from the B31 strain of B. burgdorferi sensu stricto, with serum obtained from 8 Lyme disease patients with high levels of anti-Borrelia antibody as determined using commercially available Lyme disease immunoblot strips. […]"}, "[2]": {"tested_on": "IgG in sera containing antibodies against B. burgdorferi proteins", "assay": "Epitope mapping of DbpB overlapping peptide library, IgG binding", "parameters": "species or system human", "conditions": "8 high titer Lyme disease patient sera; 20-AA library peptides of DbpB, B. burgdorferi B31", "experimental": "as §1, §2"}}}
{"substance": "DbpB(38-57): 20-AA library peptide of DbpB from B. burgdorferi B31; one of two overlapping peptides forming DbpB(38-67) (KDLKNKILKIKKEATGKGVL)", "values": [{"measurement": "samples in which the peptide was bound by IgM", "setting": "[1]", "value": 100, "unit": "%"}]}
{"substance": "DbpB(48-67): 20-AA library peptide of DbpB from B. burgdorferi B31; one of two overlapping peptides forming DbpB(38-67) (KKEATGKGVLFEAFTGLKTG)", "values": [{"measurement": "samples in which the peptide was bound by IgG", "setting": "[2]", "value": 100, "unit": "%"}]}
